This is an account of results in US20230219931A1, “FUSED HETEROARYL HYDROXAMATES AS STING AGONISTS” (BiSiChem Co., Ltd., priority 2022, published 2023).

In the assay the test system is ISG reporter activity in THP1-Dual cell. Description: ISG reporter assay. Format: cell-based. The conditions noted are these: Homo sapiens, compounds incubated with cells for 24 hours, QUANTI-Blue, absorbance at 655 nm. The method, then: [Worded in the source for another cell line; this cell line is reported under the same test.] THP1-Blue cells (cat. no. thp-isg) were purchased from InvivoGen (Sandiago, USA). Penicillin—streptomycin (cat. no. L0022-100), Fetal Bovine Serum (FBS) (cat. no. S1480-500) and Roswell Park Memorial Institute (RPMI) 1640 media (cat. L0498-500) were purchased from biowest (Nuaille, France). Zeocin (cat. no. ant-zn-OS) and Normocin (cat. no. ant-nr-1) were purchased from InvivoGen (Sandiago, USA). QUANTI-Blue™ (cat. no. rep-qbs) was purchased from InvivoGen. THP1-Blue cells were cultured in RPMI 1640 medium with 10% heat-inactivated FBS, 100 μg/ml Normocin, 100 μg/ml Zeocin and 100 U/ml-100 μg/ml penicillin-streptomycin. The cells were incubated at 37° C. in a humidified atmosphere of 5% CO2.
THP1-Blue cells were seeded at 5×10^4 cells/well (90 μl/well). 10 μl of compounds were added to the cells and incubated for 24 hours. 20 μl of cell culture supernatant was dispensed new 96-well plate (cat. no. 30096) with 180 μl of QUANTI-Blue™ solution and incubated for 15 minutes at 37° C. The absorbance was measured by Varioskan Lux (Thermofisher Scientific, USA) at 655 nm.
A general note: Reporter assays use an easily measured gene product as a stand-in for the process of interest.

Structures can show the parent of a compound that is named as a salt. Some results are limits rather than exact numbers.

`CCn1nc(C)cc1C(=O)Nc1nc2cc(C(N)=O)cc(OC)c2n1C/C=C/Cn1c(NC(=O)c2cc(C)nn2CC)nc2cc(C(N)=O)cc(OCC#CC3CCNCC3)c21` [Example 4, (E)-1-(4-(5-carbamoyl-2-(1-ethyl-3-methyl-1H-pyrazole-5-carboxamido)-7-((3-(piperidin-4-yl)prop-2-yn-1-yl)oxy)-1H-benzo[d]imidazol-1-yl)but-2-en-1-yl)-2-(1-ethyl-3-methyl-1H-pyrazole-5-carboxamido)-7-methoxy-1H-benzo[d]imidazole-5-carboxamide hydrochloride] yielded a concentration giving a half-maximal response (EC50) of 50 to 500 nM. For `CCn1nc(C)cc1C(=O)Nc1nc2cc(C(N)=O)cc(OC)c2n1C/C=C/Cn1c(NC(=O)c2cc(C)nn2CC)nc2cc(C(N)=O)cc(OCC#CC3CCN(C(=O)OC4CCNCC4)CC3)c21` [Example 9, piperidin-4-yl (E)-4-(3-((5-carbamoyl-1-(4-(5-carbamoyl-2-(1-ethyl-3-methyl-1H-pyrazole-5-carboxamido)-7-methoxy-1H-benzo[d]imidazol-1-yl)but-2-en-1-yl)-2-(1-ethyl-3-methyl-1H-pyrazole-5-carboxamido)-1H-benzo[d]imidazol-7-yl)oxy)prop-1-yn-1-yl)piperidine-1-carboxylate hydrochloride] the value was 50 to 500 nM.

Regarding `CCn1nc(C)cc1C(=O)Nc1nc2cc(C(N)=O)cc(OC)c2n1C/C=C/Cn1c(NC(=O)c2cc(C)nn2CC)nc2cc(C(N)=O)cc(OCC#CC3CCN(S(=O)(=O)N4CCNCC4)CC3)c21` [Example 29, (E)-1-(4-(5-carbamoyl-2-(1-ethyl-3-methyl-1H-pyrazole-5-carboxamido)-7-((3-(1-(piperazin-1-ylsulfonyl)piperidin-4-yl)prop-2-yn-1-yl)oxy)-1H-benzo[d]imidazol-1-yl)but-2-en-1-yl)-2-(1-ethyl-3-methyl-1H-pyrazole-5-carboxamido)-7-methoxy-1H-benzo[d]imidazole-5-carboxamide hydrochloride], the EC50 is below 50 nM.

On to `CCn1nc(C)cc1C(=O)Nc1nc2cc(C(N)=O)cc(OC)c2n1C/C=C/Cn1c(NC(=O)c2cc(C)nn2CC)nc2cc(C(N)=O)cc(OCC#CCC3CN(C(=O)OC(C)(C)C)C3)c21` [Example 50, tert-butyl (E)-3-(4-((5-carbamoyl-1-(4-(5-carbamoyl-2-(1-ethyl-3-methyl-1H-pyrazole-5-carboxamido)-7-methoxy-1H-benzo[d]imidazol-1-yl)but-2-en-1-yl)-2-(1-ethyl-3-methyl-1H-pyrazole-5-carboxamido)-1H-benzo[d]imidazol-7-yl)oxy)but-2-yn-1-yl)azetidine-1-carboxylate], for which the concentration for a half-maximal effect (EC50) was below 50 nM. For `CCn1nc(C)cc1C(=O)Nc1nc2cc(C(N)=O)cc(OC)c2n1C/C=C/Cn1c(NC(=O)c2cc(C)nn2CC)nc2cc(C(N)=O)cc(OCC#CC3CCN(C(=O)C4CCN(C(=O)OC(C)(C)C)CC4)CC3)c21` [Example 12, tert-butyl (E)-4-(4-(3-((5-carbamoyl-1-(4-(5-carbamoyl-2-(1-ethyl-3-methyl-1H-pyrazole-5-carboxamido)-7-methoxy-1H-benzo[d]imidazol-1-yl)but-2-en-1-yl)-2-(1-ethyl-3-methyl-1H-pyrazole-5-carboxamido)-1H-benzo[d]imidazol-7-yl)oxy)prop-1-yn-1-yl)piperidine-1-carbonyl)piperidine-1-carboxylate] the value was below 50 nM.

Compound `CCn1nc(C)cc1C(=O)Nc1nc2cc(C(N)=O)cc(OC)c2n1C/C=C/Cn1c(NC(=O)c2cc(C)nn2CC)nc2cc(C(N)=O)cc(OCC#CCC3CCN(C(=O)OCCO)CC3)c21` [Example 45, 2-hydroxyethyl (E)-4-(4-((5-carbamoyl-1-(4-(5-carbamoyl-2-(1-ethyl-3-methyl-1H-pyrazole-5-carboxamido)-7-methoxy-1H-benzo[d]imidazol-1-yl)but-2-en-1-yl)-2-(1-ethyl-3-methyl-1H-pyrazole-5-carboxamido)-1H-benzo[d]imidazol-7-yl)oxy)but-2-yn-1-yl)piperidine-1-carboxylate] had a 50% effective concentration (EC50) below 50 nM.

In turn, `CCn1nc(C)cc1C(=O)Nc1nc2cc(C(N)=O)cc(OC)c2n1C/C=C/Cn1c(NC(=O)c2cc(C)nn2CC)nc2cc(C(N)=O)cc(OCC#CCC3CCN(S(=O)(=O)N4CCN(C(=O)OC(C)(C)C)CC4)CC3)c21` [Example 49, tert-butyl (E)-4-((4-(4-((5-carbamoyl-1-(4-(5-carbamoyl-2-(1-ethyl-3-methyl-1H-pyrazole-5-carboxamido)-7-methoxy-1H-benzo[d]imidazol-1-yl)but-2-en-1-yl)-2-(1-ethyl-3-methyl-1H-pyrazole-5-carboxamido)-1H-benzo[d]imidazol-7-yl)oxy)but-2-yn-1-yl)piperidin-1-yl)sulfonyl)piperazine-1-carboxylate] came in with an EC50 below 50 nM. Next, `CCn1nc(C)cc1C(=O)Nc1nc2cc(C(N)=O)cc(OC)c2n1C/C=C/Cn1c(NC(=O)c2cc(C)nn2CC)nc2cc(C(N)=O)cc(OCC#CC(C)(C)N3CCN(C(=O)OC(C)(C)C)CC3)c21` [Example 41, tert-butyl (E)-4-(5-((5-carbamoyl-1-(4-(5-carbamoyl-2-(1-ethyl-3-methyl-1H-pyrazole-5-carboxamido)-7-methoxy-1H-benzo[d]imidazol-1-yl)but-2-en-1-yl)-2-(1-ethyl-3-methyl-1H-pyrazole-5-carboxamido)-1H-benzo[d]imidazol-7-yl)oxy)-2-methylpent-3-yn-2-yl)piperazine-1-carboxylate]: below 50 nM; `CCn1nc(C)cc1C(=O)Nc1nc2cc(C(N)=O)cc(OC)c2n1C/C=C/Cn1c(NC(=O)c2cc(C)nn2CC)nc2cc(C(N)=O)cc(OCC#CC3CCN(C(=O)NC4CC4)CC3)c21` [Example 14, (E)-1-(4-(5-carbamoyl-2-(1-ethyl-3-methyl-1H-pyrazole-5-carboxamido)-7-methoxy-1H-benzo[d]imidazol-1-yl)but-2-en-1-yl)-7-((3-(1-(cyclopropylcarbamoyl)piperidin-4-yl)prop-2-yn-1-yl)oxy)-2-(1-ethyl-3-methyl-1H-pyrazole-5-carboxamido)-1H-benzo[d]imidazole-5-carboxamide]: below 50 nM; `CCn1nc(C)cc1C(=O)Nc1nc2cc(C(=O)NOC)cc(OC)c2n1C/C=C/Cn1c(NC(=O)c2cc(C)nn2CC)nc2cc(C(N)=O)cc(OCC#CC(C)(C)O)c21` [Example 33, (E)-1-(4-(5-carbamoyl-2-(1-ethyl-3-methyl-1H-pyrazole-5-carboxamido)-7-((4-hydroxy-4-methylpent-2-yn-1-yl)oxy)-1H-benzo[d]imidazol-1-yl)but-2-en-1-yl)-2-(1-ethyl-3-methyl-1H-pyrazole-5-carboxamido)-N,7-dimethoxy-1H-benzo[d]imidazole-5-carboxamide]: above 500 nM. In turn, `CCn1nc(C)cc1C(=O)Nc1nc2cc(C(N)=O)cc(OC)c2n1C/C=C/Cn1c(NC(=O)c2cc(C)nn2CC)nc2cc(C(N)=O)cc(OCC#CC3CCN(S(=O)(=O)N(C)C)CC3)c21` [Example 24, (E)-1-(4-(5-carbamoyl-2-(1-ethyl-3-methyl-1H-pyrazole-5-carboxamido)-7-methoxy-1H-benzo[d]imidazol-1-yl)but-2-en-1-yl)-7-((3-(1-(N,N-dimethylsulfamoyl)piperidin-4-yl)prop-2-yn-1-yl)oxy)-2-(1-ethyl-3-methyl-1H-pyrazole-5-carboxamido)-1H-benzo[d]imidazole-5-carboxamide] came in with a concentration giving a half-maximal response (EC50) below 50 nM. For `CCn1nc(C)cc1C(=O)Nc1nc2cc(C(N)=O)cc(OC)c2n1C/C=C/Cn1c(NC(=O)c2cc(C)nn2CC)nc2cc(C(N)=O)cc(OCC#CC3CCN(S(=O)(=O)c4ccc(C)cc4)CC3)c21` [Example 23, (E)-1-(4-(5-carbamoyl-2-(1-ethyl-3-methyl-1H-pyrazole-5-carboxamido)-7-((3-(1-tosylpiperidin-4-yl)prop-2-yn-1-yl)oxy)-1H-benzo[d]imidazol-1-yl)but-2-en-1-yl)-2-(1-ethyl-3-methyl-1H-pyrazole-5-carboxamido)-7-methoxy-1H-benzo[d]imidazole-5-carboxamide] the value was below 50 nM. The compound `CCn1nc(C)cc1C(=O)Nc1nc2cc(C(N)=O)cc(OC)c2n1C/C=C/Cn1c(NC(=O)c2cc(C)nn2CC)nc2cc(C(N)=O)cc(OCC#CCC3CCN(C(=O)OC(C)(C)C)CC3)c21` [Example 42, tert-butyl (E)-4-(4-((5-carbamoyl-1-(4-(5-carbamoyl-2-(1-ethyl-3-methyl-1H-pyrazole-5-carboxamido)-7-methoxy-1H-benzo[d]imidazol-1-yl)but-2-en-1-yl)-2-(1-ethyl-3-methyl-1H-pyrazole-5-carboxamido)-1H-benzo[d]imidazol-7-yl)oxy)but-2-yn-1-yl)piperidine-1-carboxylate] gave an EC50 below 50 nM. `CCn1nc(C)cc1C(=O)Nc1nc2cc(C(N)=O)cc(OC)c2n1C/C=C/Cn1c(NC(=O)c2cc(C)nn2CC)nc2cc(C(N)=O)cc(OCC#CC3CCN(C(=O)OCCO)CC3)c21` [Example 10, 2-hydroxyethyl (E)-4-(3-((5-carbamoyl-1-(4-(5-carbamoyl-2-(1-ethyl-3-methyl-1H-pyrazole-5-carboxamido)-7-methoxy-1H-benzo[d]imidazol-1-yl)but-2-en-1-yl)-2-(1-ethyl-3-methyl-1H-pyrazole-5-carboxamido)-1H-benzo[d]imidazol-7-yl)oxy)prop-1-yn-1-yl)piperidine-1-carboxylate] had an EC50 below 50 nM.

One may read the EC50 as the concentration at which the effect is half-maximal. High values mean a need for much substance, low ones an effect from little substance.
